Results: patent US20240025862A1, “SUBSTITUTED N-PHENYLURACILS AND SALTS THEREOF, AND USE THEREOF AS HERBICIDAL ACTIVE SUBSTANCES” (Bayer Aktiengesellschaft, priority 2020, published 2024)

How the values were obtained:
Assay type in all cases: in vivo
[1] = test system: Oryza sativa (ORYSA); experiment: Post-emergence crop plant compatibility, greenhouse pot test (also comparative test C); settings: for Post-emergence action against ORYSA (crop plant compatibility): vs untreated controls
Description: (§1) Seeds of monocotyledonous and dicotyledonous weeds and crop plants were placed in sandy loam in plastic or wood-fiber pots, covered with soil and cultivated in a greenhouse under controlled growth conditions. 2 to 3 weeks after sowing, the test plants were treated at the one-leaf stage. The compounds of the invention, formulated in the form of wettable powders (WP) or as emulsion concentrates (EC), were then sprayed onto the green parts of the plants as aqueous suspension or emulsion with addition of 0.5% additive at a water application rate of 600 l/ha (converted). After the test plants had been kept in the greenhouse under optimum growth conditions for about 3 weeks, the activity of the preparations was rated visually in comparison to untreated controls. For example, 100% activity=the plants have died, 0% activity=like control plants.
(§2) The observed effects on selected crop plants are reported here in comparison to the untreated controls (values in %). The appendices “a”, “b” and “c” give differentiation by different dosage with otherwise the same crop plants tested.
(§3) C. Comparative Herbicidal Action and Crop Plant Compatibility of Two Inventive Compounds (I.7-1 and I.7-115) with a Compound of Similar Structure Known from the Literature (WO2002/098227, a-17 and EP1106607, 3-14) in Post-Emergence Treatment.

[2] = test system: Setaria viridis (SETVI); experiment: Post-emergence herbicidal action, greenhouse pot test (also comparative test C); settings: for Post-emergence action against SETVI: 20 g/ha
Description: as §1
(§4) Tables A1 to A14 below show the effects of selected compounds of the general formula (I) according to Tables I.1 to I.33 on various harmful plants and at an application rate corresponding to 20 g/ha and less, which were obtained by the experimental method specified above. The appendices “a”, “b” and “c” give differentiation by different dosage with otherwise the same harmful plants tested.
as §3
(§5) Tables C1-C4 below show the effects of two inventive compounds (I.7-1 and I.7-115) together with a compound of similar structure known from the literature (a-17 in WO2002/098227, and 3-14 in EP1106607) in different crop plants at an application rate corresponding to 5 g/ha or less, which have been obtained by the aforementioned experimental procedure.

[3] = test system: Alopecurus myosuroides (ALOMY); experiment: as above; settings: rated visually after about 3 weeks vs untreated controls, 100% = plants have died
Description: as §1, §4, §3, §5

[4] = test system: Matricaria inodora (MATIN); experiment: as above
Description: as §1, §4, §3, §5

[5] = test system: Echinochloa crus-galli (ECHCG); experiment: as above
Description: as §1, §4, §3, §5

[6] = test system: Triticum aestivum (TRZAS); experiment: Post-emergence crop plant compatibility, greenhouse pot test; settings: vs untreated controls
Description: as §1, §2

[7] = test system: Abutilon theophrasti (ABUTH); experiment: Post-emergence herbicidal action, greenhouse pot test; settings: rated visually after about 3 weeks vs untreated controls, 100% = plants have died
Description: as §1, §4

[8] = test system: Avena fatua (AVEFA); experiment: as above; settings: 20 g/ha, rated visually after about 3 weeks vs untreated controls, 100% = plants have died
Description: as §1, §4

[9] = test system: Pharbitis purpurea (PHBPU); experiment: as above
Description: as §1, §4

[10] = test system: Veronica persica (VERPE); experiment: as above
Description: as §1, §4

[11] = test system: Polygonum convolvulus (POLCO); experiment: as above
Description: as §1, §4

[12] = test system: Amaranthus retroflexus (AMARE); experiment: as above; settings: rated visually after about 3 weeks vs untreated controls, 100% = plants have died
Description: as §1, §4

[13] = test system: Viola tricolor (VIOTR); experiment: as above
Description: as §1, §4

[14] = test system: Zea mays (ZEAMX); experiment: Post-emergence crop plant compatibility, greenhouse pot test; settings: 1.25 g/ha, vs untreated controls
Description: as §1, §2

Compound	Post-emergence action against ORYSA (crop plant compatibility) ([1]; 1.25 g/ha) [%]	Post-emergence action against ORYSA (crop plant compatibility) ([1]; 5 g/ha) [%]	Post-emergence action against SETVI [2] [%]	Post-emergence action against SETVI in % ([2]; dosage 1.25 g/ha) [%]	Post-emergence action against SETVI in % ([2]; dosage 5 g/ha) [%]	Post-emergence action at 20 g/ha against ALOMY in % [3] [%]	Post-emergence action against MATIN in % ([4]; dosage 5 g/ha) [%]	Post-emergence action against MATIN in % ([4]; dosage 20 g/ha) [%]	Post-emergence action against ECHCG in % ([5]; dosage 5 g/ha) [%]	Post-emergence action against ECHCG in % ([5]; dosage 20 g/ha) [%]	Post-emergence action against TRZAS (crop plant compatibility) ([6]; 1.25 g/ha) [%]	Post-emergence action at 1.25 g/ha against ABUTH in % [7] [%]	Post-emergence action at 5 g/ha against ABUTH in % [7] [%]	Post-emergence action at 20 g/ha against ABUTH in % [7] [%]	Post-emergence action against PHBPU in % ([9]; dosage 5 g/ha) [%]	Post-emergence action against PHBPU in % ([9]; dosage 20 g/ha) [%]	Post-emergence action against VERPE ([10]; 1.25 g/ha) [%]	Post-emergence action against VERPE ([10]; 5 g/ha) [%]	Post-emergence action against VERPE ([10]; 20 g/ha) [%]	Post-emergence action against POLCO in % ([11]; dosage 5 g/ha) [%]	other results
COCCOCCOC(=O)COc1ccccc1Oc1cc(-n2c(=O)cc(C(F)(F)F)n(C)c2=O)c(F)cc1Br [I.8-23]	0	0	100	100	100	100	100	100	100	100	10	100	100	100	100	100	80	100	100	100	Post-emergence action against ORYSA in % ([1]; 20 g/ha, crop plant compatibility): 20%; Post-emergence action at 5 g/ha against ALOMY in % ([3]; 5 g/ha): 80%; Post-emergence action against TRZAS (crop plant compatibility) ([6]; 5 g/ha): 20%; Post-emergence action at 20 g/ha against AVEFA in % [8]: 80%; Post-emergence action against PHBPU in % ([9]; dosage 1.25 g/ha): 100%; Post-emergence action against POLCO in % ([11]; dosage 20 g/ha): 100%; Post-emergence action at 1.25 g/ha against AMARE in % [12]: 100%; Post-emergence action at 5 g/ha against AMARE in % [12]: 100%; Post-emergence action at 20 g/ha against AMARE in % [12]: 100%; Post-emergence action against VIOTR ([13]; 1.25 g/ha): 100%; Post-emergence action against VIOTR ([13]; 5 g/ha): 100%; Post-emergence action against VIOTR ([13]; 20 g/ha): 100%
Cn1c(C(F)(F)F)cc(=O)n(-c2cc(Oc3c(F)cccc3OCC(=O)OCc3ccccn3)c(Cl)cc2F)c1=O [I.19-276]	0	0	100	100	100	90	100	100	100	100	20	100	100	100	100	100	100	100	100	100	Post-emergence action against ZEAMX (crop plant compatibility) [14]: 20%; Post-emergence action against POLCO in % ([11]; dosage 20 g/ha): 100%; Post-emergence action at 1.25 g/ha against AMARE in % [12]: 100%; Post-emergence action at 5 g/ha against AMARE in % [12]: 100%; Post-emergence action at 20 g/ha against AMARE in % [12]: 100%; Post-emergence action against VIOTR ([13]; 1.25 g/ha): 100%; Post-emergence action against VIOTR ([13]; 5 g/ha): 100%; Post-emergence action against VIOTR ([13]; 20 g/ha): 100%
